Experimental data taken from US10501481B2, “Heterocyclic compounds and their use in preventing or treating bacterial infections” (priority 2015, dated 2019).
≈ marks a conversion by molar mass, not a printed value. Where two headings read alike, the source gives them in different places.

Legend:
[1] = system: K. pneumoniae BAA-1898 (TEM-1, SHV-11, SHV-12, KPC-2); test: microbe, parasite or virus in culture; type: cell-based; settings: for MIC: Klebsiella pneumoniae; for MIC of CAZ in combination with compound at 4 μg/mL: strain BAA-1898, compound fixed at 4 μg/mL
[2] = system: E. cloacae 260508 (TEM-1, CTX-M-15); test: MIC broth microdilution, alone and synergy with ceftazidime; settings: Enterobacter cloacae, read-out: MIC CAZ
[3] = system: E. coli UFR61O (TEM-1, KPC-2); test: as above; settings: Escherichia coli, read-out: MIC CAZ
[4] = system: K. pneumoniae 160143 (TEM-1, SHV-1, CTX-M-15, KPC-2, OXA-1); test: as above; settings: Klebsiella pneumoniae, read-out: MIC CAZ
[5] = system: K. pneumoniae UFR68 (TEM-1, SHV-11, CTX-M-15, KPC-3); test: as above; settings: Klebsiella pneumoniae, read-out: MIC CAZ
E. cloacae P99 (AmpC) = test: as above; settings: for MIC: Enterobacter cloacae; for MIC of CAZ in combination with compound at 4 μg/mL: strain P99, compound fixed at 4 μg/mL
[6] = system: E. cloacae UFR70 (TEM-1, CTX-M-15, CMY-2, OXA-1, Porin loss); test: as above; settings: Enterobacter cloacae, read-out: MIC CAZ
[7] = system: K. pneumoniae UFR77 (CMY-2); test: as above; settings: Klebsiella pneumoniae, read-out: MIC CAZ
[8] = system: E. coli UFR74 (SHV-1, DHA-1); test: as above; settings: Escherichia coli, read-out: MIC CAZ
[9] = system: E. coli UFR18 (CTX-M-15, OXA-204); test: as above; settings: Escherichia coli, read-out: MIC CAZ
[10] = system: E. coli 131119 (TEM-1, OXA-48); test: as above; settings: Escherichia coli
[11] = system: K. oxytoca UFR21 (TEM-1, CTX-M-15, OXA-48); test: as above; settings: Klebsiella oxytoca, read-out: MIC CAZ
[12] = system: K. pneumoniae UFR24 (TEM-1, SHV-2, SHV-11, OXA-1, OXA-48, OXA-47); test: as above; settings: Klebsiella pneumoniae, read-out: MIC CAZ
[13] = system: K. pneumoniae 6299 (TEM-1, SHV-11, OXA-163); test: as above; settings: for MIC: Klebsiella pneumoniae
E. coli RGN238 (OXA-1) = test: as above; settings: Escherichia coli
[14] = system: K. pneumoniae 200047 (TEM-1, SHV-32, CTX-M-15, OXA-1); test: as above; settings: Klebsiella pneumoniae, read-out: MIC CAZ
[15] = system: E. coli 190317 (TEM-1, SHV-12, CTX-M-15, OXA-1); test: as above; settings: for MIC: Escherichia coli; for MIC of CAZ in combination with compound at 4 μg/mL: strain 190317, compound fixed at 4 μg/mL
[16] = system: E. coli UFR32 (TEM-1, VEB-1, OXA-10); test: as above; settings: Escherichia coli, read-out: MIC CAZ
[17] = system: E. cloacae UFR38 (CTX-M-15, NDM-1); test: as above; settings: Enterobacter cloacae, read-out: MIC CAZ
[18] = system: C. murliniae 210102 (VIM-4); test: as above; settings: read-out: MIC CAZ
[19] = system: E. coli UFR52 (TEM-1, SHV-12, IMP-8); test: as above; settings: Escherichia coli, read-out: MIC CAZ
[20] = system: P. aeruginosa CIP107051 (TEM-24); test: as above; settings: for MIC: Pseudomonas aeruginosa; for MIC of CAZ in combination with compound at 4 μg/mL: strain CIP107051, compound fixed at 4 μg/mL
[21] = system: P. aeruginosa UFR35 (OXA-23); test: as above; settings: Pseudomonas aeruginosa, read-out: MIC CAZ
[22] = system: P. aeruginosa UFR90 (derepressed AmpC, OprD−); test: as above; settings: Pseudomonas aeruginosa, read-out: MIC CAZ
[23] = system: P. aeruginosa UFR92 (derepressed AmpC, OprD−); test: as above; settings: Pseudomonas aeruginosa, read-out: MIC CAZ
TEM-1 = molecular target: T1, TEM-1 (Escherichia coli, UniProt P62593); test: β-lactamase inhibitory activity, nitrocefin hydrolysis; type: biochemical; settings: class (A); 30 min pre-incubation; nitrocefin 200 μM
T1 construct: made in house; host or cells: E. coli
Experimental: (§1) Enzyme activity was monitored by spectrophotometric measurement of nitrocefin (NCF-TOKU-E, N005) hydrolysis at 485 nm, at room temperature and in assay buffer A: 100 mM Phosphate pH7, 2% glycerol and 0.1 mg/mL Bovine serum albumin (Sigma, B4287). […] To a transparent polystyrene plate (Corning, 3628) were added in each well 5 μL DMSO or inhibitor dilutions in DMSO and 80 μL enzyme in buffer A. Plates were immediately read at 485 nm in a microplate spectrophotometer (BioTek, PowerWave HT) to enable background subtraction. After 30 min of pre-incubation at room temperature, 15 μL of NCF (200 μM final) were finally added in each well. Final enzyme concentrations were 0.1 nM (TEM-1), 0.075 nM (SHV-1), 0.4 nM (CTX-M-15), 1 nM (KPC-2), 0.2 nM (P99 AmpC), 0.2 nM (CMY-37), 0.4 nM (AmpC P. aeruginosa), 0.2 nM (OXA-1), 1.2 nM (OXA-11), 0.4 nM (OXA-15) and 0.3 nM (OXA-48). After 20 min incubation at room temperature, plates were once again read at 485 nm. Enzyme activity was obtained by subtracting the final signal by the background, and was converted to enzyme inhibition using non inhibited wells. IC50 curves were fitted to a classical Langmuir equilibrium model with Hill slope using XLFIT (IDBS).

SHV-1 = molecular target: T2, SHV-1 (Klebsiella pneumoniae, UniProt P0AD64); test: as above; type: biochemical
T2 construct: made in house; host or cells: E. coli
Experimental: as §1

CTX-M-15 = molecular target: T3, CTX-M-15 (Escherichia coli, UniProt Q9EXV5); test: as above; type: biochemical
T3 construct: made in house; host or cells: E. coli

KPC-2 = molecular target: T4, KPC-2 (Klebsiella pneumoniae, UniProt Q9F663); test: as above; type: biochemical
T4 construct: made in house; host or cells: E. coli
Experimental: as §1

P99 AmpC = molecular target: T5, P99 AmpC (Enterobacter cloacae, UniProt P05364); test: as above; type: biochemical; settings: class (C); 30 min pre-incubation; nitrocefin 200 μM
T5 construct: made in house; host or cells: E. coli
Experimental: as §1

AmpC P. aeruginosa = AmpC P. aeruginosa (Pseudomonas aeruginosa, UniProt P24735); test: biochemical
Experimental: Enzyme activity was monitored by spectrophotometric measurement of nitrocefin (NCF-TOKU-E, N005) hydrolysis at 485 nm, at room temperature and in assay buffer A: 100 mM Phosphate pH7, 2% glycerol and 0.1 mg/mL Bovine serum albumin (Sigma, B4287). Enzymes were cloned in E. coli expression vector, expressed and purified in house using classical procedures. To a transparent polystyrene plate (Corning, 3628) were added in each well 5 μL DMSO or inhibitor dilutions in DMSO and 80 μL enzyme in buffer A. Plates were immediately read at 485 nm in a microplate spectrophotometer (BioTek, PowerWave HT) to enable background subtraction. After 30 min of pre-incubation at room temperature, 15 μL of NCF (200 μM final) were finally added in each well. Final enzyme concentrations were 0.1 nM (TEM-1), 0.075 nM (SHV-1), 0.4 nM (CTX-M-15), 1 nM (KPC-2), 0.2 nM (P99 AmpC), 0.2 nM (CMY-37), 0.4 nM (AmpC P. aeruginosa), 0.2 nM (OXA-1), 1.2 nM (OXA-11), 0.4 nM (OXA-15) and 0.3 nM (OXA-48). After 20 min incubation at room temperature, plates were once again read at 485 nm. Enzyme activity was obtained by subtracting the final signal by the background, and was converted to enzyme inhibition using non inhibited wells. IC50 curves were fitted to a classical Langmuir equilibrium model with Hill slope using XLFIT (IDBS).

OXA-1 = molecular target: T6, OXA-1 (Escherichia coli, UniProt P13661); test: β-lactamase inhibitory activity, nitrocefin hydrolysis; type: biochemical
T6 construct: made in house; host or cells: E. coli
Experimental: as §1

OXA-11 = molecular target: T7, OXA-11 (Pseudomonas aeruginosa, UniProt Q06778); test: as above; type: biochemical
T7 construct: made in house; host or cells: E. coli

OXA-15 = molecular target: T8, OXA-15 (Pseudomonas aeruginosa, UniProt Q51574); test: as above; type: biochemical
T8 construct: made in house; host or cells: E. coli
Experimental: as §1

OXA-48 = molecular target: T9, OXA-48 (Klebsiella pneumoniae, UniProt Q6XEC0); test: as above; type: biochemical
T9 construct: made in house; host or cells: E. coli

[24] = system: P. aeruginosa CIP105250 (OXA-15); test: MIC broth microdilution, compounds alone; settings: Pseudomonas aeruginosa, CIP105250, read-out: MIC compounds of the invention alone
[25] = BAA1898, read-out: MIC compounds of the invention alone
[26] = read-out: MIC compounds of the invention alone
[27] = CIP107051, read-out: MIC compounds of the invention alone

T5 sequence (P05364 21-381): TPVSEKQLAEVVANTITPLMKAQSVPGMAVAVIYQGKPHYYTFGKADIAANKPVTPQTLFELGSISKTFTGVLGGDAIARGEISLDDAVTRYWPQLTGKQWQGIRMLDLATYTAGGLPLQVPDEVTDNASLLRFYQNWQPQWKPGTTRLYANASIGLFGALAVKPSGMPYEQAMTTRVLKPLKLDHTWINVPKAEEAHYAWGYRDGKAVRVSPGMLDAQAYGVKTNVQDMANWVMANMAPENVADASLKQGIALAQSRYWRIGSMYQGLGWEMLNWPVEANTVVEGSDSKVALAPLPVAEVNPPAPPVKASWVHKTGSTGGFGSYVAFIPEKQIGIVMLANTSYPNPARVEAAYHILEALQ
AmpC P. aeruginosa, sequence (P24735 27-397): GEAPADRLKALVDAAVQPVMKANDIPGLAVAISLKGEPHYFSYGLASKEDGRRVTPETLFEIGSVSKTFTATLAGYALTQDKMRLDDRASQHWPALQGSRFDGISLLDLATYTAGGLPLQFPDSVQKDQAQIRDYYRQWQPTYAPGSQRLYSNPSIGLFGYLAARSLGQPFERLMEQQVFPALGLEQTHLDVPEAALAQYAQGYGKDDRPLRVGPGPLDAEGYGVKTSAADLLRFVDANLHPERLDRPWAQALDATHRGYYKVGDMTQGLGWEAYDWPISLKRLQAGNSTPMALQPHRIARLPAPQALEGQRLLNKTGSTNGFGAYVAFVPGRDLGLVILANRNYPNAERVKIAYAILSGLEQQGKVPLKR
T3 sequence (Q9EXV5 entry or part of it): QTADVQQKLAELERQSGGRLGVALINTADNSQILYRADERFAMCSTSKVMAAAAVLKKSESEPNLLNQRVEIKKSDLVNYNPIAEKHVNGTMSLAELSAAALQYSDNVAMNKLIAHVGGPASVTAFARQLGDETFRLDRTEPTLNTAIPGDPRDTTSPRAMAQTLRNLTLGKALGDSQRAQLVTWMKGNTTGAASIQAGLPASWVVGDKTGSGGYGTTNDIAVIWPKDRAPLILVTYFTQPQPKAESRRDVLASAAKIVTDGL
T7 sequence (Q06778 21-266): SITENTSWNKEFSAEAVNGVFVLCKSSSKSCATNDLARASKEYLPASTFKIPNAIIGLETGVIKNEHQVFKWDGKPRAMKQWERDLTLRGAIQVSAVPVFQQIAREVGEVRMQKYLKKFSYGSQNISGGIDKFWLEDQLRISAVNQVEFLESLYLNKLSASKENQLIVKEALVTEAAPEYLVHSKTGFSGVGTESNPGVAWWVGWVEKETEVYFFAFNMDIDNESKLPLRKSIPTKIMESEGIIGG
T9 sequence (Q6XEC0 23-265 limits assumed): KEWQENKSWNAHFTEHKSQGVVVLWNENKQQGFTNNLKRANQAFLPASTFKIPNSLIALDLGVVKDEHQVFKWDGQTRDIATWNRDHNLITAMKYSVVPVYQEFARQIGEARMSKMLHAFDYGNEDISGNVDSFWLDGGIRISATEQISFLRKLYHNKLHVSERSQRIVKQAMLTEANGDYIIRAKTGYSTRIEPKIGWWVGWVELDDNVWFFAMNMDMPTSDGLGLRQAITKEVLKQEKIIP
T6 sequence (P13661 26-276): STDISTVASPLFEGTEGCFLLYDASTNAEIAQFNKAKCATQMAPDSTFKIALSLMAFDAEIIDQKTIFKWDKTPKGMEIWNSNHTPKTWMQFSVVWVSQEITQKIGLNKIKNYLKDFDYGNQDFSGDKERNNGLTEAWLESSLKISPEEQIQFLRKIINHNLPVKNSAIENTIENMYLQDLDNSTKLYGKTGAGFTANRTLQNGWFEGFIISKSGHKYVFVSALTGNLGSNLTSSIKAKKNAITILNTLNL
T2 sequence (P0AD64 22-286): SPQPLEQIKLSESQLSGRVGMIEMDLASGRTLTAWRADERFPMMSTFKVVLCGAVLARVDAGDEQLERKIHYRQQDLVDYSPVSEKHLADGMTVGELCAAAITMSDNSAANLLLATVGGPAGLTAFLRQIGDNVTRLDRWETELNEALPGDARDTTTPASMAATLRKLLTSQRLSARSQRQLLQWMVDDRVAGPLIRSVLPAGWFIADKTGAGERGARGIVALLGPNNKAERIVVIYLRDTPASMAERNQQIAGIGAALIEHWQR
T8 sequence (Q51574 22-275): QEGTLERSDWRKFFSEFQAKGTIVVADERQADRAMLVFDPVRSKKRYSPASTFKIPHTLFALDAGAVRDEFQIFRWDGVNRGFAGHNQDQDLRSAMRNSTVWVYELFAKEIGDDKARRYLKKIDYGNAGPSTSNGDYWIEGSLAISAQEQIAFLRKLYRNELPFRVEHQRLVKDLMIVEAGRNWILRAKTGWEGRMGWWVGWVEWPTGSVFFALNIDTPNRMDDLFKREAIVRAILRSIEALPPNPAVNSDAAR
T4 sequence (Q9F663 25-293 limits assumed): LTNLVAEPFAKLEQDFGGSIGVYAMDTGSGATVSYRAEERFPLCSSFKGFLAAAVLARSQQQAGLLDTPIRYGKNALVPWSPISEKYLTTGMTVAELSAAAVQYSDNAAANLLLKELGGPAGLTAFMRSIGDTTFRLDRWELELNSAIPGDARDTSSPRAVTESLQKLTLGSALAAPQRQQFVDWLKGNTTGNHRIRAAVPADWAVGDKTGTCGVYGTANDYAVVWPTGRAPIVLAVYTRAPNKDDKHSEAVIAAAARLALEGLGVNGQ
T1 sequence (P62593 24-286 limits assumed): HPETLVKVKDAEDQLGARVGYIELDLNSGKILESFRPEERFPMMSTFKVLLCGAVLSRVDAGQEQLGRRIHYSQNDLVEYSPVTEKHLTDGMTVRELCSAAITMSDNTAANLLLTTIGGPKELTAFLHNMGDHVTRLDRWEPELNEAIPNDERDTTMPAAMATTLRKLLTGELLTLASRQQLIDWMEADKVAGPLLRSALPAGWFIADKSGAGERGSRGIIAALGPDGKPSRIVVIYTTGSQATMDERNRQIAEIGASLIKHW

## CC(C)(O/N=C(\C(=O)N[C@@H]1C(=O)N2C(C(=O)[O-])=C(C[n+]3ccccc3)CS[C@H]12)c1csc(N)n1)C(=O)O [CAZ, ceftazidime, reference compound]
[1]; BAA1898, read-out: MIC CAZ
  MIC: 256 µg/mL (≈ 468 µM)
[2]
  MIC: 128 µg/mL
[3]
  MIC: 128 µg/mL
[4]
  MIC: 128 µg/mL
[5]
  MIC: > 128 µg/mL
E. cloacae P99 (AmpC); read-out: MIC CAZ
  MIC: 128 µg/mL
[6]
  MIC: > 128 µg/mL
[7]
  MIC: 64 µg/mL
[8]
  MIC: 64 µg/mL
[9]
  MIC: > 128 µg/mL
[10]; read-out: MIC CAZ
  MIC: 0.5 µg/mL
[11]
  MIC: 128 µg/mL
[12]
  MIC: > 128 µg/mL
[13]; read-out: MIC CAZ
  MIC: 256 µg/mL
E. coli RGN238 (OXA-1); read-out: MIC CAZ
  MIC: 0.5 µg/mL
[14]
  MIC: 128 µg/mL
[15]; read-out: MIC CAZ
  MIC: 128 µg/mL
[16]
  MIC: > 128 µg/mL
[17]
  MIC: > 128 µg/mL
[18]
  MIC: > 128 µg/mL
[19]
  MIC: > 128 µg/mL
[20]; CIP107051, read-out: MIC CAZ
  MIC: 256 µg/mL
[21]
  MIC: 2 µg/mL
[22]
  MIC: 64 µg/mL
[23]
  MIC: 32 µg/mL

## CC(C)(C)OC(=O)NCCn1c2c(sc1=O)C1CN(C2)C(=O)N1OS(=O)(=O)[O-].[Na+] (stereo not drawn) [Example 3, Sodium [5-(2-(tert-butoxycarbonylamino)ethyl)-4,9-dioxo-3-thia-5,8,10-triaza-tricyclo[6.2.1.0^2.6]undec-2(6)-en-10-yl] sulfate]
TEM-1
  IC50: 5.8 nM
SHV-1
  IC50: 20 nM
CTX-M-15
  IC50: 0.49 nM
KPC-2
  IC50: 3.4 nM
P99 AmpC
  IC50: 5.9 nM
AmpC P. aeruginosa
  IC50: 200 nM
OXA-1
  IC50: 130 nM
OXA-11
  IC50: 16 nM
OXA-15
  IC50: 97 nM
OXA-48
  IC50: 1.7 nM
[1]; [25]
  MIC: > 32 µg/mL
[1]
  MIC of CAZ in combination with compound at 4 μg/mL: >128 µg/mL
[24]
  MIC: > 32 µg/mL
E. cloacae P99 (AmpC); [26]
  MIC: > 32 µg/mL
E. cloacae P99 (AmpC)
  MIC of CAZ in combination with compound at 4 μg/mL: 128 µg/mL
[10]; [26]
  MIC: > 32 µg/mL
[13]; [26]
  MIC: > 32 µg/mL
E. coli RGN238 (OXA-1); [26]
  MIC: > 32 µg/mL
[15]; [26]
  MIC: > 32 µg/mL
[15]
  MIC of CAZ in combination with compound at 4 μg/mL: 32 µg/mL
[20]; [27]
  MIC: > 32 µg/mL
[20]
  MIC of CAZ in combination with compound at 4 μg/mL: 64 µg/mL

## N=C(N)NCCn1c2c(sc1=O)C1CN(C2)C(=O)N1OS(=O)(=O)[O-].[Na+] (stereo not drawn) [Example 6, Sodium and 2,2,2-trifluoroacetate [5-(2-quanidiniumethyl)-4,9-dioxo-3-thia-5,8,10-triaza-tricyclo[6.2.1.0^2.6]undec-2(6)-en-10-yl] sulfate]
TEM-1
  IC50: 7 nM
SHV-1
  IC50: 12 nM
CTX-M-15
  IC50: 5.4 nM
KPC-2
  IC50: 5.7 nM
P99 AmpC
  IC50: 380 nM
AmpC P. aeruginosa
  IC50: 1500 nM
OXA-1
  IC50: 1700 nM
OXA-11
  IC50: 130 nM
OXA-15
  IC50: 120 nM
OXA-48
  IC50: 1.6 nM
[1]; [25]
  MIC: 16 µg/mL
[1]
  MIC of CAZ in combination with compound at 4 μg/mL: ≤0.125 µg/mL
[24]
  MIC: 8 µg/mL
E. cloacae P99 (AmpC); [26]
  MIC: 1 µg/mL
E. cloacae P99 (AmpC)
  MIC of CAZ in combination with compound at 4 μg/mL: <0.25 µg/mL
[13]; [26]
  MIC: > 32 µg/mL
[13]; strain 6299, compound fixed at 4 μg/mL
  MIC of CAZ in combination with compound at 4 μg/mL: ≤0.125 µg/mL
E. coli RGN238 (OXA-1); [26]
  MIC: 4 µg/mL
[15]; [26]
  MIC: 1 µg/mL
[15]
  MIC of CAZ in combination with compound at 4 μg/mL: <0.25 µg/mL
[20]; [27]
  MIC: 8 µg/mL
[20]
  MIC of CAZ in combination with compound at 4 μg/mL: 8 µg/mL
